Data published in patent US9302999B2, “Substituted triazoles as herbicides” (E. I. DU PONT DE NEMOURS AND COMPANY, priority 2012, dated 2016).

Assays:
Type in all cases: in vivo
[1] = system: sedge, umbrella (small-flower umbrella sedge, Cyperus difformis); assay: Test C flooded paddy test: sedge, umbrella; conditions: scale 0 to 100 (0 no effect, 100 complete control)
Method in brief: (§1)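 Plants were grown to the 2-leaf stage, pots flooded to 3 cm above soil, and test compounds applied directly to the paddy water, with that depth held throughout. After 13 to 15 days in a greenhouse, injury was visually rated against controls on a 0 (no effect) to 100 (complete control) scale.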

[2] = system: foxtail, giant (giant foxtail, Setaria faberii); assay: Test A pre-/postemergence: foxtail, giant; conditions: for Foxtail, Giant plant response rating: Postemergence; for Plant response rating, Foxtail, Giant: Preemergence
Method in brief: (§2)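 Injury is scored visually on a scale where 0 means no effect and 100 complete control, comparing treated with untreated plants after approximately ten greenhouse days. Both preemergence and postemergence applications are made at the same time.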

[3] = system: wheat (Triticum aestivum); assay: Test A pre-/postemergence: wheat; conditions: for Wheat plant response rating: Postemergence; for Plant response rating, Wheat: Preemergence
Method in brief: as §2

rice (Oryza sativa) = assay: Test C flooded paddy test: rice; conditions: scale 0 to 100 (0 no effect, 100 complete control)
Method in brief: as §1

[4] = system: morningglory (Ipomoea spp.); assay: Test A pre-/postemergence: morningglory; conditions: for Morningglory plant response rating: Postemergence; for Plant response rating, Morningglory: Preemergence
Method in brief: as §2

corn (Zea mays) = assay: Test A pre-/postemergence: corn; conditions: for Corn plant response rating: Postemergence; for Plant response rating, Corn: Preemergence
Method in brief: as §2

[5] = system: velvetleaf (Abutilon theophrasti); assay: Test A pre-/postemergence: velvetleaf; conditions: for Velvetleaf plant response rating: Postemergence; for Plant response rating, Velvetleaf: Preemergence
Method in brief: as §2

[6] = system: pigweed (Amaranthus retroflexus); assay: Test A pre-/postemergence: pigweed; conditions: for Pigweed plant response rating: Postemergence; for Plant response rating, Pigweed: Preemergence
Method in brief: as §2

[7] = system: barnyardgrass (Echinochloa crus-galli); assay: Test A pre-/postemergence: barnyardgrass; conditions: for Barnyardgrass plant response rating: Postemergence; for Plant response rating, Barnyardgrass: Preemergence
Method in brief: as §2

[8] = system: ducksalad (Heteranthera limosa); assay: Test C flooded paddy test: ducksalad; conditions: scale 0 to 100 (0 no effect, 100 complete control)
Method in brief: as §1

[9] = system: barnyardgrass (Echinochloa crus-galli); assay: Test C flooded paddy test: barnyardgrass; conditions: scale 0 to 100 (0 no effect, 100 complete control)
Method in brief: as §1

[10] = system: crabgrass, large (large crabgrass, Digitaria sanguinalis); assay: Test A pre-/postemergence: crabgrass, large; conditions: for Crabgrass, Large plant response rating: Postemergence; for Plant response rating, Crabgrass, Large: Preemergence
Method in brief: as §2

[11] = Flood (flooded paddy test), 62 g ai/ha, visual rating after 13 to 15 days
[12] = Flood (flooded paddy test), 250 g ai/ha, visual rating after 13 to 15 days
[13] = 125 g ai/ha, 0 to 100 scale, 0 is no effect, 100 is complete control
[14] = 500 g ai/ha, visual rating on 0 to 100 scale (0 no effect, 100 complete control), approximately ten days
[15] = 125 g ai/ha, 0 to 100 scale (0 no effect, 100 complete control)
[16] = 500 g ai/ha, 0 to 100 scale, 0 is no effect, 100 is complete control
[17] = Flood (flooded paddy test), 125 g ai/ha, visual rating after 13 to 15 days

Which “Plant response rating, Sedge, Umbrella” value [1, 11] does the source give for `Cc1nn(-c2ccc(Cl)cc2)nc1Oc1ccnc(C(F)(F)F)c1` [Compound 52] here?
The value was 65.

What about the “Plant response rating, Sedge, Umbrella” value [1, 12] of the same compound?
The value was 85.

And the “Foxtail, Giant plant response rating” value [2, 13]?
Its value is 50.

And the “Foxtail, Giant plant response rating” value [2, 14]?
Its value is 100.

And the “Plant response rating, Foxtail, Giant” value [2, 15]?
Its value is 100.

And the “Plant response rating, Foxtail, Giant” value [2, 16]?
Its value is 100.

And the “Wheat plant response rating” value [3, 13]?
The value was 10.

And the “Wheat plant response rating” value [3, 14]?
Its value is 20.

And the “Plant response rating, Wheat” value [3, 15]?
Its value is 0.

And the “Plant response rating, Wheat” value [3, 16]?
Its value is 0.

What about the “Plant response rating, Rice” value (rice (Oryza sativa); [11]) of the same compound?
The value was 15.

What about the “Plant response rating, Rice” value (rice (Oryza sativa); [12]) of the same compound?
Its value is 40.

What about the “Morningglory plant response rating” value [4, 13] of the same compound?
The value was 40.

And the “Morningglory plant response rating” value [4, 14]?
The value was 100.

And the “Plant response rating, Morningglory” value [4, 15]?
Its value is 10.

And the “Plant response rating, Morningglory” value [4, 16]?
The value was 20.

And the “Corn plant response rating” value (corn (Zea mays); [13])?
The value was 10.

And the “Corn plant response rating” value (corn (Zea mays); [14])?
Its value is 20.

What about the “Plant response rating, Corn” value (corn (Zea mays); [15]) of the same compound?
The value was 0.

What about the “Plant response rating, Corn” value (corn (Zea mays); [16]) of the same compound?
Its value is 10.

And the “Velvetleaf plant response rating” value [5, 13]?
The value was 30.

What about the “Velvetleaf plant response rating” value [5, 14] of the same compound?
Its value is 100.

And the “Plant response rating, Velvetleaf” value [5, 15]?
The value was 0.

And the “Plant response rating, Velvetleaf” value [5, 16]?
The value was 10.

What about the “Pigweed plant response rating” value [6, 13] of the same compound?
Its value is 100.

And the “Pigweed plant response rating” value [6, 14]?
Its value is 100.

And the “Plant response rating, Pigweed” value [6, 15]?
The value was 100.

What about the “Barnyardgrass plant response rating” value [7, 13] of the same compound?
Its value is 20.

And the “Barnyardgrass plant response rating” value [7, 14]?
The value was 70.

What about the “Plant response rating, Barnyardgrass” value [7, 15] of the same compound?
Its value is 20.

What about the “Plant response rating, Barnyardgrass” value [7, 16] of the same compound?
The value was 90.

And the “Plant response rating, Ducksalad” value [8, 11]?
The value was 80.

What about the “Plant response rating, Ducksalad” value [8, 12] of the same compound?
The value was 95.

What about the “Plant response rating, Barnyardgrass” value [9, 11] of the same compound?
Its value is 40.

What about the “Plant response rating, Barnyardgrass” value [9, 12] of the same compound?
Its value is 75.

And the “Crabgrass, Large plant response rating” value [10, 13]?
The value was 50.

What about the “Crabgrass, Large plant response rating” value [10, 14] of the same compound?
The value was 100.

And the “Plant response rating, Crabgrass, Large” value [10, 15]?
Its value is 100.

And the “Plant response rating, Crabgrass, Large” value [10, 16]?
Its value is 100.

`Cc1nn(-c2cccc(C(F)(F)F)n2)nc1C(=O)c1cccc(C(F)(F)F)c1` [Compound 57] was tested. Which “Plant response rating, Sedge, Umbrella” value [1, 11] did it give?
The value was 0.

What about the “Plant response rating, Sedge, Umbrella” value [1, 17] of the same compound?
Its value is 0.

And the “Plant response rating, Sedge, Umbrella” value [1, 12]?
Its value is 0.

And the “Plant response rating, Sedge, Umbrella” value ([1]; Flood, 31 g ai/ha)?
Its value is 0.

And the “Foxtail, Giant plant response rating” value [2, 13]?
Its value is 0.

And the “Foxtail, Giant plant response rating” value [2, 14]?
The value was 0.

And the “Plant response rating, Foxtail, Giant” value [2, 15]?
Its value is 0.

And the “Plant response rating, Foxtail, Giant” value [2, 16]?
The value was 0.

And the “Wheat plant response rating” value [3, 13]?
The value was 0.

And the “Wheat plant response rating” value [3, 14]?
Its value is 0.

What about the “Plant response rating, Wheat” value [3, 15] of the same compound?
The value was 0.

And the “Plant response rating, Wheat” value [3, 16]?
Its value is 0.

What about the “Plant response rating, Rice” value (rice (Oryza sativa); [11]) of the same compound?
The value was 0.

And the “Plant response rating, Rice” value (rice (Oryza sativa); [17])?
Its value is 0.

What about the “Plant response rating, Rice” value (rice (Oryza sativa); [12]) of the same compound?
Its value is 0.

And the “Plant response rating, Rice” value (rice (Oryza sativa); Flood, 31 g ai/ha)?
Its value is 0.

And the “Morningglory plant response rating” value [4, 13]?
Its value is 0.

What about the “Morningglory plant response rating” value [4, 14] of the same compound?
The value was 0.

And the “Plant response rating, Morningglory” value [4, 15]?
Its value is 0.

What about the “Plant response rating, Morningglory” value [4, 16] of the same compound?
Its value is 0.

What about the “Corn plant response rating” value (corn (Zea mays); [13]) of the same compound?
The value was 0.

And the “Corn plant response rating” value (corn (Zea mays); [14])?
Its value is 0.

What about the “Plant response rating, Corn” value (corn (Zea mays); [15]) of the same compound?
Its value is 0.

What about the “Plant response rating, Corn” value (corn (Zea mays); [16]) of the same compound?
The value was 0.

And the “Velvetleaf plant response rating” value [5, 13]?
The value was 0.

And the “Velvetleaf plant response rating” value [5, 14]?
Its value is 0.

And the “Plant response rating, Velvetleaf” value [5, 15]?
The value was 0.

And the “Plant response rating, Velvetleaf” value [5, 16]?
Its value is 0.

What about the “Pigweed plant response rating” value [6, 13] of the same compound?
The value was 0.

What about the “Pigweed plant response rating” value [6, 14] of the same compound?
The value was 10.

And the “Plant response rating, Pigweed” value [6, 15]?
Its value is 0.

And the “Plant response rating, Pigweed” value [6, 16]?
The value was 0.

And the “Barnyardgrass plant response rating” value [7, 13]?
The value was 0.

And the “Barnyardgrass plant response rating” value [7, 14]?
The value was 0.

And the “Plant response rating, Barnyardgrass” value [7, 15]?
The value was 0.

And the “Plant response rating, Barnyardgrass” value [7, 16]?
The value was 0.

What about the “Plant response rating, Ducksalad” value [8, 11] of the same compound?
The value was 0.

What about the “Plant response rating, Ducksalad” value [8, 17] of the same compound?
Its value is 0.

What about the “Plant response rating, Ducksalad” value [8, 12] of the same compound?
Its value is 0.

What about the “Plant response rating, Ducksalad” value ([8]; Flood, 31 g ai/ha) of the same compound?
Its value is 0.

What about the “Plant response rating, Barnyardgrass” value [9, 11] of the same compound?
Its value is 0.

And the “Plant response rating, Barnyardgrass” value [9, 17]?
The value was 0.

And the “Plant response rating, Barnyardgrass” value [9, 12]?
Its value is 0.

And the “Plant response rating, Barnyardgrass” value ([9]; Flood, 31 g ai/ha)?
The value was 0.

What about the “Crabgrass, Large plant response rating” value [10, 13] of the same compound?
The value was 0.

What about the “Crabgrass, Large plant response rating” value [10, 14] of the same compound?
Its value is 10.

What about the “Plant response rating, Crabgrass, Large” value [10, 15] of the same compound?
Its value is 0.

What about the “Plant response rating, Crabgrass, Large” value [10, 16] of the same compound?
The value was 0.
